Here are results for four compounds from ChEMBL document CHEMBL1201862, “PubChem BioAssay data set” (2004).

Activity calls are given as the source filed them. Where only a bound is given, the exact number is not on record here.

The target in assay [1] is Beta-galactosidase (Escherichia coli, UniProt Q8VNN2). As to the kind of experiment: PubChem AID 485352. Format: functional.
For assay [2], the target named is T1, Type-1 angiotensin II receptor (Homo sapiens, UniProt P30556).
T1 sequence (P30556 whole entry): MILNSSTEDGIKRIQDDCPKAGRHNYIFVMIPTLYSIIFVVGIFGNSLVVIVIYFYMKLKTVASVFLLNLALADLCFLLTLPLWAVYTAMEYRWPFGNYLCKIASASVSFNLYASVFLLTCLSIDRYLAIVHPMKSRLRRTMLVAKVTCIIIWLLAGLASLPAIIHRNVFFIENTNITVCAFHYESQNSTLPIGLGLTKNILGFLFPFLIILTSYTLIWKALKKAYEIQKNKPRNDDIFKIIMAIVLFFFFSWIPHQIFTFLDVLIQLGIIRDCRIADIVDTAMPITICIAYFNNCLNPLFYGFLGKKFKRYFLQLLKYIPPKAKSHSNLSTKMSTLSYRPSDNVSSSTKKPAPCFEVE
As to the kind of experiment: AT1 receptor antagonists, dose response, selectivity assay for APJ receptor antagonist project, cell-based, uHTS hits (AID 463214).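 Also: antagonist potency against angiotensin II stimulated AT1 response.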 Format: functional.

The target of assay [3] is DNA topoisomerase (Yersinia pestis, UniProt A0A2S9PM60). As to the kind of experiment: Y. pestis Topo-I inhibitors, cleavage product readout, dose response, biochemical, cherry-pick (AID 588525).
Sequence of DNA topoisomerase (A0A2S9PM60 whole entry): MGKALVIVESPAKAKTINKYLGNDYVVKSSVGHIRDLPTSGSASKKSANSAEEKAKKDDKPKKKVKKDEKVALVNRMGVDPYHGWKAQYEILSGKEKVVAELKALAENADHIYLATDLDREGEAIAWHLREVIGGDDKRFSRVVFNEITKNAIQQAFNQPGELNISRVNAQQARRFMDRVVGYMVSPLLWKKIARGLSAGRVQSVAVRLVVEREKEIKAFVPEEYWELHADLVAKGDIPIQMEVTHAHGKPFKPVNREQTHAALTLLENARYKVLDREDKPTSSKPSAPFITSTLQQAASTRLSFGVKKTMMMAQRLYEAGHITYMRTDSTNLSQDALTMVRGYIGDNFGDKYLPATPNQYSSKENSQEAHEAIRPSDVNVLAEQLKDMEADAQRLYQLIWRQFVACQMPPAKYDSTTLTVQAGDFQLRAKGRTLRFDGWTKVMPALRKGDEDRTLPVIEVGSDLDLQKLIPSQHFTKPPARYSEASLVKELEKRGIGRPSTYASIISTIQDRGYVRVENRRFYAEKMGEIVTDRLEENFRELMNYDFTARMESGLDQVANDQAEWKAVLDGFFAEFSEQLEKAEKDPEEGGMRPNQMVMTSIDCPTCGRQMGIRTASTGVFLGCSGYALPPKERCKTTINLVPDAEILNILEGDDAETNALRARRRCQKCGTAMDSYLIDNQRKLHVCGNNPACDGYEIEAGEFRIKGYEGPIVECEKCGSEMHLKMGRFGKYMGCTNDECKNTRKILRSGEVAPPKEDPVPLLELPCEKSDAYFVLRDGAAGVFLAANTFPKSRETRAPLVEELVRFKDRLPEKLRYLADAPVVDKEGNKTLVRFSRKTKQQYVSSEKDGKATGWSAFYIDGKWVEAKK
Assay [4] concerns the target Beta-2 adrenergic receptor (Homo sapiens, UniProt P07550). As to the kind of experiment: beta2AR agonists driving receptor internalization, dose response, cell-based, FAP fluorogen, flow cytometry, cherry pick 1 (AID 588763). Format: functional. A general note: In flow cytometry, cells or beads pass a laser one at a time.
Assay [5] concerns the target Beta-adrenergic receptor kinase 1 (Homo sapiens, UniProt P25098). The experiment in a line: aptamer displacement from bead-bound GRK2 – biochemical, cherry pick 1, bead flow cytometry, dose response (AID 504500).
In assay [6] the test system is HEK293. As to the kind of experiment: cells. Format: functional, cell-based. Particulars: Homo sapiens.
Assay [7] addresses T2, Nuclear receptor subfamily 0 group B member 1 (Homo sapiens, UniProt P51843).
T2 sequence (P51843 whole entry): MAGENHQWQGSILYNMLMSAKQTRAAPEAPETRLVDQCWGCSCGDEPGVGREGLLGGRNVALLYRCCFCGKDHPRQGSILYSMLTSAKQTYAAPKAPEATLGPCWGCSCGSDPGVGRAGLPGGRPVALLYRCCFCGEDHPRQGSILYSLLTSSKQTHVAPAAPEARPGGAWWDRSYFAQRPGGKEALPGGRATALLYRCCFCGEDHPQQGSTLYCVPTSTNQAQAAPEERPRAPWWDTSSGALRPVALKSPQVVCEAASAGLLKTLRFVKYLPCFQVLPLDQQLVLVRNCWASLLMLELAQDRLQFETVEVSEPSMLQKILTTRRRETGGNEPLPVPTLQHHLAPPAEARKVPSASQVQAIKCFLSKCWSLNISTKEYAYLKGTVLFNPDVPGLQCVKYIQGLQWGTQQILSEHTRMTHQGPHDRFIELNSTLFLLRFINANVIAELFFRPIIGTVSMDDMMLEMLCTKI
The experiment in a line: Luminescence-based cell-based high throughput dose response assay for inhibitors of the orphan nuclear receptor subfamily 0, group B, member 1 (DAX1; NR0B1). [Related pubchem assays (depositor defined):AID504766, AID504790]. It is filed as functional.

Assay [8] in a line: HepG2 cell cytotoxicity, dose response, cytotoxicity control, plate reader, cherry-pick, antagonist series (AID 743416). Format: functional, cell-based.
Assay [9] in a line: LGR2 antagonists, dose response, cell-based, HEK293, CRE-luciferase reporter, cherry pick, set 2 (AID 743343).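 Also: transfected cells were stimulated with diluted bursicon conditioned medium after compound addition.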 It is filed as functional. In general terms: In a reporter assay the amount or activity of a reporter protein is the signal.
Assay [10] is described as follows: MC4R antagonists, dose response, counter-screen for LGR2 antagonist project, cell-based, plate reader, cherry pick (AID 743444).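 Also: transfected HEK 293 cells stimulated with alpha-MSH peptide; potency of inhibitors of the alpha-MSH evoked signal.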 It is filed as functional. Background: A counterscreen serves to expose hits that act by an unwanted route or on another target.

Sequence of Beta-2 adrenergic receptor (P07550 whole entry): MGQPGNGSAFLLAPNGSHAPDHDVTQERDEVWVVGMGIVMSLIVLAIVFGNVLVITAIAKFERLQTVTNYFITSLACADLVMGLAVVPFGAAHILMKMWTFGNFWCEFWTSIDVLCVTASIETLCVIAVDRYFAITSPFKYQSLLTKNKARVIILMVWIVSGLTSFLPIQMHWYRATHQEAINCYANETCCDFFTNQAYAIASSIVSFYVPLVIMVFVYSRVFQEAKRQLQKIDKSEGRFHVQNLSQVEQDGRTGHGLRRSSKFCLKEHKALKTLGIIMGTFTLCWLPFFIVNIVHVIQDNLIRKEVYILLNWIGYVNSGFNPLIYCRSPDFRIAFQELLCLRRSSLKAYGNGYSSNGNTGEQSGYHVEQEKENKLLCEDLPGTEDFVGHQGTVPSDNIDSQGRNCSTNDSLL
Sequence of Beta-adrenergic receptor kinase 1 (P25098 whole entry): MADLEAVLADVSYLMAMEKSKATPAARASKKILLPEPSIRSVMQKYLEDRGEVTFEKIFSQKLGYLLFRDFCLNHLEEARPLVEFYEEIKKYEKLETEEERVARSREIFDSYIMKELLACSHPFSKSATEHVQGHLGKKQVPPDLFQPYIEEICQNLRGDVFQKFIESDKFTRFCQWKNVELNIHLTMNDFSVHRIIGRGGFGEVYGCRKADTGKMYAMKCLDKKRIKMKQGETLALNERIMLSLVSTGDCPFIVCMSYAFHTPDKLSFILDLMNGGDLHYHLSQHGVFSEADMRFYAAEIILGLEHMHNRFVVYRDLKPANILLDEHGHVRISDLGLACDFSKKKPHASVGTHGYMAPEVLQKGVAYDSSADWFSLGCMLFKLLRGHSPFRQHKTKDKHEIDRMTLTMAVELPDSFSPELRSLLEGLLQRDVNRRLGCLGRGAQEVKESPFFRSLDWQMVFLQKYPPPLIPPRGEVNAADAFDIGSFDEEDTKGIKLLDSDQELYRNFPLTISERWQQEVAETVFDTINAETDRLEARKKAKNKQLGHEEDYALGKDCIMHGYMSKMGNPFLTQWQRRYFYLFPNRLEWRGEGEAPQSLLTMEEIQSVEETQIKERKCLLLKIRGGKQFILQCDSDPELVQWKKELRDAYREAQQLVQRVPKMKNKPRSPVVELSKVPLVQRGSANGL
Sequence of Beta-galactosidase (Q8VNN2 whole entry): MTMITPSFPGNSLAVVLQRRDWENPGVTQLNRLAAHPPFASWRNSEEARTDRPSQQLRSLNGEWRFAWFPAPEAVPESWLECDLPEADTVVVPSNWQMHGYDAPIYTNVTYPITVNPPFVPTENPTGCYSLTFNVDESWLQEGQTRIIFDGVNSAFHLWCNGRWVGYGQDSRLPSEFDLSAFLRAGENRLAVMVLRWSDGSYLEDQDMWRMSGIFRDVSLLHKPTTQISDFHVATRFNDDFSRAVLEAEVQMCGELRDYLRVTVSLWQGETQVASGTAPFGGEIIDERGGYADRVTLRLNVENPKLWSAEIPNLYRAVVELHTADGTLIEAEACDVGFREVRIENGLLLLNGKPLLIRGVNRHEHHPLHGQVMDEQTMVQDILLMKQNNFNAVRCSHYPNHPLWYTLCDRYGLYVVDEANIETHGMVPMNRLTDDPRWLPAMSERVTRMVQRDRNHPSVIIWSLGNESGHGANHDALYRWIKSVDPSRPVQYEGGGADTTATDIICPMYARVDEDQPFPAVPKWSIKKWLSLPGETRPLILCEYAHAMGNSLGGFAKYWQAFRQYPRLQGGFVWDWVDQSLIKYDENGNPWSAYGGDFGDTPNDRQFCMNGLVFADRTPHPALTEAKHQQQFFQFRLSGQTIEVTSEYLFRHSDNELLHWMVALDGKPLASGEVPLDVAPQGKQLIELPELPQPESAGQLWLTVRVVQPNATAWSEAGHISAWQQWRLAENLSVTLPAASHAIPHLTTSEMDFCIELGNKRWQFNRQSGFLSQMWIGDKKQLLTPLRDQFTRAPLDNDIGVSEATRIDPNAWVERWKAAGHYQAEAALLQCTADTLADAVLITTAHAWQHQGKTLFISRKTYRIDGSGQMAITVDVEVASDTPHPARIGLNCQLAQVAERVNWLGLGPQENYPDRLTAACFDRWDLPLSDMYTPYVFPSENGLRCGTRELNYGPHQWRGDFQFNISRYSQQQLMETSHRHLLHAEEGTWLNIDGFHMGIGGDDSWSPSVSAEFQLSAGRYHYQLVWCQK

The term EC50 denotes the concentration that produces a half-maximal response. The term IC50 denotes the concentration needed to halve the response being measured. As a reminder, the AC50 is the concentration giving half of the maximal activity seen. `NC(=O)c1ccccc1NCC(=O)c1ccc(Cl)cc1`: the EC50 in [1] is > 40 µM (inactive). For the same compound, in assay [2], the IC50 is 7.41 µM (active). Further, the AC50 in [3] was 7.76 µM (active).

`CC(=O)N1c2ccccc2C(C)(c2ccccc2)CC1(C)C` (stereo not given): the EC50 in [4] is 9.29 µM (active).

On to `CCCCCC(=O)Nc1cccc(C2=NOC3(C2)C[C@@H](C(N)=O)N(C(=O)c2ccc(OC)cc2)C3)c1` (stereo not given in full), for which, in assay [5], the EC50 was 4.38 µM (active).

For the compound `Cc1ccc(-c2cnn3c(N4CCOCC4)cc(C)nc23)cc1`, the IC50 in assay [6] and in assay [7] was > 67.5 µM (inactive) each time. Further, the AC50 in [8] is > 52 µM (inactive); in [9], 17.4 µM (active); in assay [10], 23.6 µM (active).
